Reference: PMC5218480 (PLoS ONE, 2017)

Tested on: MV-4-11 cells
Assay: Gene expression microarray analysis (Affymetrix PrimeView) and GSEA
Format: cell-based, human
Design: RFU PODN (11730768_x_at) / Fold change /veh PODN (11730768_x_at) / RFU LINC00158 (11744669_a_at) / Fold change /veh LINC00158 (11744669_a_at) / RFU DUSP10 (11751237_a_at) / Fold change /veh DUSP10 (11751237_a_at) / RFU ID3 (11757404_x_at) / Fold change /veh ID3 (11757404_x_at) / RFU PLEKHG5 (11737974_s_at) / Fold change /veh PLEKHG5 (11737974_s_at) / RFU LRRC4B (11730491_at) / Fold change /veh LRRC4B (11730491_at) / RFU GIMAP4 (11747438_a_at) / Fold change /veh GIMAP4 (11747438_a_at) / RFU KRT8 (11758183_x_at) / Fold change /veh KRT8 (11758183_x_at) / RFU CNN1 (11734310_a_at) / Fold change /veh CNN1 (11734310_a_at) / RFU VPS37D (11726825_at) / Fold change /veh VPS37D (11726825_at) / RFU C10orf10 (11716522_x_at) / Fold change /veh C10orf10 (11716522_x_at) / RFU KIR2DL2 /// KIR2DL4 /// KIR2DL5A /// KIR2DL5B /// KIR2DS1 /// KIR2DS2 /// KIR2DS3 /// KIR2DS4 /// KIR3DL3 /// KIR3DL3 /// KIR3DS1 (11738374_at) / Fold change /veh KIR2DL2 /// KIR2DL4 /// KIR2DL5A /// KIR2DL5B /// KIR2DS1 /// KIR2DS2 /// KIR2DS3 /// KIR2DS4 /// KIR3DL3 /// KIR3DL3 /// KIR3DS1 (11738374_at) / RFU C1QL1 (11718748_at) / Fold change /veh C1QL1 (11718748_at) / RFU TMPRSS4 (11747572_a_at) / Fold change /veh TMPRSS4 (11747572_a_at) / RFU HAMP (11756126_x_at) / Fold change /veh HAMP (11756126_x_at) / RFU RNFT2 (11725882_a_at) / Fold change /veh RNFT2 (11725882_a_at) / RFU NR4A2 (11747474_a_at) / Fold change /veh NR4A2 (11747474_a_at) / RFU ABCC12 (11746883_a_at) / Fold change /veh ABCC12 (11746883_a_at) / RFU TMEM136 (11760407_x_at) / Fold change /veh TMEM136 (11760407_x_at) / RFU CLDN22 /// WWC2 (11732394_at) / Fold change /veh CLDN22 /// WWC2 (11732394_at) / RFU HLA-DPB1 (11760878_x_at) / Fold change /veh HLA-DPB1 (11760878_x_at) / RFU SPINT1 (11716480_a_at) / Fold change /veh SPINT1 (11716480_a_at) / RFU GAP43 (11754022_s_at) / Fold change /veh GAP43 (11754022_s_at) / RFU A4GNT (11735810_at) / Fold change /veh A4GNT (11735810_at) / RFU PRB3 (11715151_x_at) / Fold change /veh PRB3 (11715151_x_at) / RFU TUBB4B (11761932_at) / Fold change /veh TUBB4B (11761932_at) / RFU CAPN14 (11732068_a_at) / Fold change /veh CAPN14 (11732068_a_at) / RFU TMCC2 (11721928_a_at) / Fold change /veh TMCC2 (11721928_a_at) / RFU IRGQ (11745062_a_at) / Fold change /veh IRGQ (11745062_a_at) / RFU FAM174B (11720279_a_at) / Fold change /veh FAM174B (11720279_a_at) / RFU TMPRSS4 (11748680_a_at) / Fold change /veh TMPRSS4 (11748680_a_at) / RFU FAM212B (11763350_a_at) / Fold change /veh FAM212B (11763350_a_at) / RFU PLEKHG5 (11743358_a_at) / Fold change /veh PLEKHG5 (11743358_a_at) / RFU ZSCAN30 (11745921_a_at) / Fold change /veh ZSCAN30 (11745921_a_at) / RFU CMKLR1 (11741424_a_at) / Fold change /veh CMKLR1 (11741424_a_at) / RFU LOC101060620 /// MAPK8IP1 (11723275_at) / Fold change /veh LOC101060620 /// MAPK8IP1 (11723275_at) / RFU SPTSSB (11747773_x_at) / Fold change /veh SPTSSB (11747773_x_at) / RFU PRSS12 (11739890_at) / Fold change /veh PRSS12 (11739890_at) / RFU BIN1 (11741810_x_at) / Fold change /veh BIN1 (11741810_x_at) / RFU WNT11 (11732464_a_at) / Fold change /veh WNT11 (11732464_a_at) / RFU C10orf10 (11716521_a_at) / Fold change /veh C10orf10 (11716521_a_at) / RFU C5orf56 (11738089_at) / Fold change /veh C5orf56 (11738089_at) / RFU CYB561 (11721691_x_at) / Fold change /veh CYB561 (11721691_x_at) / RFU ANKRD19P (11752326_a_at) / Fold change /veh ANKRD19P (11752326_a_at) / RFU OR2T12 /// OR2T33 /// OR2T8 (11738714_s_at) / Fold change /veh OR2T12 /// OR2T33 /// OR2T8 (11738714_s_at) / RFU VCAN (11748164_a_at) / Fold change /veh VCAN (11748164_a_at) / RFU JSRP1 (11732532_at) / Fold change /veh JSRP1 (11732532_at) / RFU KRTAP10-11 (11738290_x_at) / Fold change /veh KRTAP10-11 (11738290_x_at) / RFU MYO3A (11730013_a_at) / Fold change /veh MYO3A (11730013_a_at) / RFU EBF3 (11725865_a_at) / Fold change /veh EBF3 (11725865_a_at) / RFU CAMK2N1 (11719241_x_at) / Fold change /veh CAMK2N1 (11719241_x_at) / RFU C5orf56 (11738088_a_at) / Fold change /veh C5orf56 (11738088_a_at) / RFU OLFML3 (11715873_a_at) / Fold change /veh OLFML3 (11715873_a_at) / RFU LOC100653217 /// NTM (11731650_a_at) / Fold change /veh LOC100653217 /// NTM (11731650_a_at) / RFU MAPK11 (11762145_a_at) / Fold change /veh MAPK11 (11762145_a_at) / RFU FIZ1 (11724087_x_at) / Fold change /veh FIZ1 (11724087_x_at) / RFU OASL (11726364_x_at) / Fold change /veh OASL (11726364_x_at) / RFU SOX15 (11748057_x_at) / Fold change /veh SOX15 (11748057_x_at) / RFU CD79A (11719716_a_at) / Fold change /veh CD79A (11719716_a_at) / RFU HIST1H1D (11736915_at) / Fold change /veh HIST1H1D (11736915_at) / RFU CASKIN2 (11723855_a_at) / Fold change /veh CASKIN2 (11723855_a_at) / RFU LOC730098 (11760151_x_at) / Fold change /veh LOC730098 (11760151_x_at) / RFU OR4N2 (11742367_at) / Fold change /veh OR4N2 (11742367_at) / RFU PRRT2 (11749266_a_at) / Fold change /veh PRRT2 (11749266_a_at) / RFU SNX32 (11753110_a_at) / Fold change /veh SNX32 (11753110_a_at) / RFU CDHR5 (11726645_a_at) / Fold change /veh CDHR5 (11726645_a_at) / RFU RCAN1 (11760418_a_at) / Fold change /veh RCAN1 (11760418_a_at) / RFU FAM167A (11723789_a_at) / Fold change /veh FAM167A (11723789_a_at) / RFU FAM26E (11764081_at) / Fold change /veh FAM26E (11764081_at) / RFU ISYNA1 (11749810_s_at) / Fold change /veh ISYNA1 (11749810_s_at) / RFU ACY1 (11761880_at) / Fold change /veh ACY1 (11761880_at) / RFU 11764098_at / Fold change /veh 11764098_at / RFU SAMD14 (11745864_x_at) / Fold change /veh SAMD14 (11745864_x_at) / RFU NPB (11741838_a_at) / Fold change /veh NPB (11741838_a_at) / RFU TMPRSS6 (11731388_a_at) / Fold change /veh TMPRSS6 (11731388_a_at) / RFU KRTAP10-2 (11738614_at) / Fold change /veh KRTAP10-2 (11738614_at) / RFU ARHGAP8 /// PRR5-ARHGAP8 (11727945_x_at) / Fold change /veh ARHGAP8 /// PRR5-ARHGAP8 (11727945_x_at) / RFU KRTAP5-7 /// NADSYN1 (11734609_at) / Fold change /veh KRTAP5-7 /// NADSYN1 (11734609_at) / RFU RASL12 (11751679_a_at) / Fold change /veh RASL12 (11751679_a_at) / RFU CDKN2B (11736163_a_at) / Fold change /veh CDKN2B (11736163_a_at) / RFU PRF1 (11729649_at) / Fold change /veh PRF1 (11729649_at) / RFU, ZNF638 /// ZNF638-IT1 / Fold change vs veh, ZNF638 /// ZNF638-IT1 / RFU, PANK3 / Fold change vs veh, PANK3 / RFU, SH3YL1 / Fold change vs veh, SH3YL1 / RFU, ZEB2 / Fold change vs veh, ZEB2 / RFU, NRIP1 / Fold change vs veh, NRIP1 / RFU, PTTG1IP / Fold change vs veh, PTTG1IP / RFU, CAPN2 / Fold change vs veh, CAPN2 / RFU, MED14 / Fold change vs veh, MED14 / RFU, SNORA58 / Fold change vs veh, SNORA58 / RFU, C1orf63 / Fold change vs veh, C1orf63 / RFU, LRRFIP1 / Fold change vs veh, LRRFIP1 / RFU, NDUFAF7 / Fold change vs veh, NDUFAF7 / RFU, SLC12A2 / Fold change vs veh, SLC12A2 / RFU, IBTK / Fold change vs veh, IBTK / RFU, ESF1 / Fold change vs veh, ESF1 / Fold change vs veh, TMEM50B / RFU, TAOK1 / Fold change vs veh, TAOK1 / RFU, ACBD3 / Fold change vs veh, ACBD3 / RFU, TMA16 / Fold change vs veh, TMA16 / RFU, RWDD3 / Fold change vs veh, RWDD3 / RFU, BCAT1 / Fold change vs veh, BCAT1 / RFU, EDEM3 / Fold change vs veh, EDEM3 / RFU, TMEM33 / Fold change vs veh, TMEM33 / RFU, WDR75 / Fold change vs veh, WDR75 / RFU, AHCTF1 / Fold change vs veh, AHCTF1 / RFU, TFRC / Fold change vs veh, TFRC / RFU, ZDHHC17 / Fold change vs veh, ZDHHC17 / RFU, NOM1 / Fold change vs veh, NOM1 / RFU, ARL8B / Fold change vs veh, ARL8B / RFU, ZBTB11 / Fold change vs veh, ZBTB11 / RFU, TAMM41 / Fold change vs veh, TAMM41 / RFU, KIAA1704 /// LOC100996395 / Fold change vs veh, KIAA1704 /// LOC100996395 / RFU, ING1 / Fold change vs veh, ING1 / RFU, TRMT61B / Fold change vs veh, TRMT61B / RFU, FUBP3 / Fold change vs veh, FUBP3 / RFU, TP53 / Fold change vs veh, TP53 / RFU, TNKS2 / Fold change vs veh, TNKS2 / RFU, ZFP14 / Fold change vs veh, ZFP14 / RFU, ACTR2 / Fold change vs veh, ACTR2 / RFU, PPP3R1 / Fold change vs veh, PPP3R1 / RFU, PIK3R1 / Fold change vs veh, PIK3R1 / RFU, HNRNPA1 / Fold change vs veh, HNRNPA1 / RFU, RNF170 / Fold change vs veh, RNF170 / RFU, ZNF28 / Fold change vs veh, ZNF28 / RFU, RNGTT / Fold change vs veh, RNGTT / RFU, OGT / Fold change vs veh, OGT / RFU, BRD1 / Fold change vs veh, BRD1 / RFU, MARS / Fold change vs veh, MARS / RFU, ZNF655 / Fold change vs veh, ZNF655 / RFU, FAHD1 / Fold change vs veh, FAHD1 / RFU, BDP1 / Fold change vs veh, BDP1 / RFU, LRRCC1 / Fold change vs veh, LRRCC1 / RFU, ARID1A / Fold change vs veh, ARID1A / RFU, ZNF146 / Fold change vs veh, ZNF146 / RFU, ZNF330 / Fold change vs veh, ZNF330 / RFU, GPN3 / Fold change vs veh, GPN3 / RFU, C9orf123 / Fold change vs veh, C9orf123 / RFU, N4BP2L2 / Fold change vs veh, N4BP2L2 / RFU, ARFIP1 / Fold change vs veh, ARFIP1 / RFU, FAM179B / Fold change vs veh, FAM179B / RFU, BCL10 / Fold change vs veh, BCL10 / RFU, UHRF1BP1L / Fold change vs veh, UHRF1BP1L / RFU, BET1 / Fold change vs veh, BET1 / RFU, CNOT2 / Fold change vs veh, CNOT2 / RFU, ZNF268 / Fold change vs veh, ZNF268 / Fold change vs veh, ZNF507 / RFU, DGCR2 / Fold change vs veh, DGCR2 / RFU, WDSUB1 / Fold change vs veh, WDSUB1 / Fold change vs veh, HSP90B1 /// MIR3652 / RFU, ADSS / Fold change vs veh, ADSS / RFU, GK / Fold change vs veh, GK / RFU, ZNF148 / Fold change vs veh, ZNF148 / RFU, TAF9 / Fold change vs veh, TAF9 / RFU, SLC1A5 / Fold change vs veh, SLC1A5 / RFU, SLMO2 / Fold change vs veh, SLMO2 / RFU, ABCC4 / Fold change vs veh, ABCC4 / RFU, LOC101060439 /// RAP1B / Fold change vs veh, LOC101060439 /// RAP1B / RFU, RFX7 / Fold change vs veh, RFX7 / RFU, GTPBP10 / Fold change vs veh, GTPBP10 / RFU, CNEP1R1 / Fold change vs veh, CNEP1R1 / RFU, BIVM-ERCC5 /// ERCC5 / Fold change vs veh, BIVM-ERCC5 /// ERCC5 / RFU, ILF3 / Fold change vs veh, ILF3 / RFU 11762660_at / Fold change /veh 11762660_at / RFU VCAN (11757783_s_at) / Fold change /veh VCAN (11757783_s_at) / RFU DDX43 (11728927_at) / Fold change /veh DDX43 (11728927_at) / RFU KRT8 (11758188_x_at) / Fold change /veh KRT8 (11758188_x_at) / RFU NKD1 (11759106_at) / Fold change /veh NKD1 (11759106_at) / RFU SRD5A1 (11742802_a_at) / Fold change /veh SRD5A1 (11742802_a_at) / RFU TPSAB1 /// TPSB2 (11721975_s_at) / Fold change /veh TPSAB1 /// TPSB2 (11721975_s_at) / RFU GSTM3 (11746129_a_at) / Fold change /veh GSTM3 (11746129_a_at) / RFU IL23R (11737362_x_at) / Fold change /veh IL23R (11737362_x_at) / RFU TMEM51 (11727254_a_at) / Fold change /veh TMEM51 (11727254_a_at) / RFU PIWIL2 (11732686_x_at) / Fold change /veh PIWIL2 (11732686_x_at) / RFU ORM1 (11744905_x_at) / Fold change /veh ORM1 (11744905_x_at) / RFU CCDC152 (11743942_at) / Fold change /veh CCDC152 (11743942_at) / RFU ECM1 (11717891_a_at) / Fold change /veh ECM1 (11717891_a_at) / RFU IL23R (11748794_a_at) / Fold change /veh IL23R (11748794_a_at) / RFU TNFAIP8L3 (11732012_x_at) / Fold change /veh TNFAIP8L3 (11732012_x_at) / RFU MBOAT4 (11741988_at) / Fold change /veh MBOAT4 (11741988_at) / RFU 11764193_at / Fold change /veh 11764193_at / RFU TMEM53 (11763286_at) / Fold change /veh TMEM53 (11763286_at) / RFU MAGEB2 (11727129_at) / Fold change /veh MAGEB2 (11727129_at) / RFU TMEM200A (11744735_a_at) / Fold change /veh TMEM200A (11744735_a_at) / RFU CCDC152 (11751479_a_at) / Fold change /veh CCDC152 (11751479_a_at) / RFU FAM211A (11726209_a_at) / Fold change /veh FAM211A (11726209_a_at) / RFU RGS16 (11746705_a_at) / Fold change /veh RGS16 (11746705_a_at) / RFU VCAN (11755009_s_at) / Fold change /veh VCAN (11755009_s_at) / RFU RHOB (11743442_s_at) / Fold change /veh RHOB (11743442_s_at) / RFU RGS16 (11720943_a_at) / Fold change /veh RGS16 (11720943_a_at) / RFU RGS16 (11720944_at) / Fold change /veh RGS16 (11720944_at) / RFU, VPS4B / Fold change vs veh, VPS4B / RFU, CREB1 / Fold change vs veh, CREB1 / RFU, DNAJC13 / Fold change vs veh, DNAJC13 / RFU, GNAQ / Fold change vs veh, GNAQ / RFU, CDK5R1 / Fold change vs veh, CDK5R1 / RFU, ZRANB3 / Fold change vs veh, ZRANB3 / RFU, CUL4A / Fold change vs veh, CUL4A / RFU, CCNY / Fold change vs veh, CCNY / RFU, UFL1 / Fold change vs veh, UFL1 / RFU, COG3 / Fold change vs veh, COG3 / RFU, DIAPH2 / Fold change vs veh, DIAPH2 / RFU, SKA2 / Fold change vs veh, SKA2 / RFU, AFF3 / Fold change vs veh, AFF3 / RFU, LMF1 / Fold change vs veh, LMF1 / RFU, IPO11 / Fold change vs veh, IPO11 / RFU, DFFB / Fold change vs veh, DFFB / RFU, FOXP1 / Fold change vs veh, FOXP1 / RFU, CARD8 / Fold change vs veh, CARD8 / RFU, STRN3 / Fold change vs veh, STRN3 / RFU, ADK / Fold change vs veh, ADK / RFU, RASSF2 / Fold change vs veh, RASSF2 / RFU, WIPF1 / Fold change vs veh, WIPF1 / RFU, LARP1B / Fold change vs veh, LARP1B / RFU, RASA1 / Fold change vs veh, RASA1 / RFU, RB1 / Fold change vs veh, RB1 / RFU, PPFIA1 / Fold change vs veh, PPFIA1 / RFU, MAT2A / Fold change vs veh, MAT2A / RFU, CCT5 / Fold change vs veh, CCT5 / RFU, WDR92 / Fold change vs veh, WDR92 / RFU, CUX1 / Fold change vs veh, CUX1 / RFU, TTC7A / Fold change vs veh, TTC7A / RFU, TMEM135 / Fold change vs veh, TMEM135 / RFU, DEPTOR / Fold change vs veh, DEPTOR / RFU, CPM / Fold change vs veh, CPM / RFU, DNAJB6 / Fold change vs veh, DNAJB6 / RFU, CACNA2D3 / Fold change vs veh, CACNA2D3 / RFU, DTX4 / Fold change vs veh, DTX4 / RFU, TFCP2 / Fold change vs veh, TFCP2 / RFU, GMCL1 /// GMCL1P1 / Fold change vs veh, GMCL1 /// GMCL1P1 / RFU, AEBP2 / Fold change vs veh, AEBP2 / RFU, SNHG1 /// SNORD22 /// SNORD25 /// SNORD26 /// SNORD27 /// SNORD28 /// SNORD29 /// SNORD31 / Fold change vs veh, SNHG1 /// SNORD22 /// SNORD25 /// SNORD26 /// SNORD27 /// SNORD28 /// SNORD29 /// SNORD31 / Fold change (Aza/veh), C12orf56 (ProbeSet 11735607_a_at) / Fold change (ACY-1035/veh), C12orf56 (ProbeSet 11735607_a_at) / Fold change (Aza/veh), FGFR1OP (ProbeSet 11751329_s_at) / Fold change (ACY-1035/veh), FGFR1OP (ProbeSet 11751329_s_at) / Fold change (Aza/veh), VPS36 (ProbeSet 11739960_a_at) / Fold change (ACY-1035/veh), VPS36 (ProbeSet 11739960_a_at) / RFU SYPL1 (11715823_x_at) / Fold change /veh SYPL1 (11715823_x_at) / RFU IGFBP7 (11715501_s_at) / Fold change /veh IGFBP7 (11715501_s_at) / RFU REEP3 (11722064_at) / Fold change /veh REEP3 (11722064_at) / RFU IGLL1 (11728026_x_at) / Fold change /veh IGLL1 (11728026_x_at): dose or concentration left out as unconfirmed
Conditions: ProbeSet 11753623_s_at; LIST D

Nc1ccc(-c2cccs2)cc1NC(=O)c1ccc2c(c1)cc(C1CC1)n2CCN1CCOCC1 [ACY-1035]
RFU, LOC101060439 /// RAP1B: 312.98 RFU
